The target of this assay is T1, rat mGluR5 (Rattus norvegicus, UniProt P31424).
T1 construct: expressed in transfected cells; host or cells: CHO cells (CHO-rat mGluR5 line, kept under Geneticin selection)
In words: Calcium mobilization flux (FLIPR) in CHO-rat mGluR5 cells in the presence of glutamate. Type of assay: cell-based. The following applies: 10 uM glutamate, Fluo 4 calcium flux, mean of 4 experiments. The method, then:
40,000 CHO-rat mGluR5 cells/well were plated into 96 well plate (Costar 3409, Black, clear bottom, 96 well, tissue culture treated) for an overnight incubation in Dulbecco's Modified Eagle's Medium (DMEM, pH 7.4) and supplemented with glutamine, 10% FBS, 1% Pen/Strep, and 500 ug/mL Geneticin. CHO-rat mGluR5 cells were washed and treated with Optimem medium and were incubated for 1-4 hours prior to loading cells. […]
The plates containing the CHO-rat mGluR5 cells were transferred to a FLIPR for the assessment of calcium mobilization flux in the presence of glutamate and in the presence or absence of test compounds. After monitoring fluorescence for 15 seconds to establish a baseline, DMSO solutions containing various concentrations of the test compound diluted in loading buffer (0.05 mL of 4× dilutions for the competition curves) were added to the cell plate and fluorescence was monitored for 2 minutes. […] Plate fluorescence was then monitored for an additional 60 seconds after agonist addition. […] In each experiment, fluorescence was monitored as a function of time and the data analyzed using Microsoft Excel and GraphPad Prism. […] In each experiment, each data point was determined at least two times.
In general terms: Calcium assays in cells follow changes in intracellular calcium, usually with a dye or a luminescent sensor.

SMILES strings stand for the structures.

T1 sequence (P31424 21-1203): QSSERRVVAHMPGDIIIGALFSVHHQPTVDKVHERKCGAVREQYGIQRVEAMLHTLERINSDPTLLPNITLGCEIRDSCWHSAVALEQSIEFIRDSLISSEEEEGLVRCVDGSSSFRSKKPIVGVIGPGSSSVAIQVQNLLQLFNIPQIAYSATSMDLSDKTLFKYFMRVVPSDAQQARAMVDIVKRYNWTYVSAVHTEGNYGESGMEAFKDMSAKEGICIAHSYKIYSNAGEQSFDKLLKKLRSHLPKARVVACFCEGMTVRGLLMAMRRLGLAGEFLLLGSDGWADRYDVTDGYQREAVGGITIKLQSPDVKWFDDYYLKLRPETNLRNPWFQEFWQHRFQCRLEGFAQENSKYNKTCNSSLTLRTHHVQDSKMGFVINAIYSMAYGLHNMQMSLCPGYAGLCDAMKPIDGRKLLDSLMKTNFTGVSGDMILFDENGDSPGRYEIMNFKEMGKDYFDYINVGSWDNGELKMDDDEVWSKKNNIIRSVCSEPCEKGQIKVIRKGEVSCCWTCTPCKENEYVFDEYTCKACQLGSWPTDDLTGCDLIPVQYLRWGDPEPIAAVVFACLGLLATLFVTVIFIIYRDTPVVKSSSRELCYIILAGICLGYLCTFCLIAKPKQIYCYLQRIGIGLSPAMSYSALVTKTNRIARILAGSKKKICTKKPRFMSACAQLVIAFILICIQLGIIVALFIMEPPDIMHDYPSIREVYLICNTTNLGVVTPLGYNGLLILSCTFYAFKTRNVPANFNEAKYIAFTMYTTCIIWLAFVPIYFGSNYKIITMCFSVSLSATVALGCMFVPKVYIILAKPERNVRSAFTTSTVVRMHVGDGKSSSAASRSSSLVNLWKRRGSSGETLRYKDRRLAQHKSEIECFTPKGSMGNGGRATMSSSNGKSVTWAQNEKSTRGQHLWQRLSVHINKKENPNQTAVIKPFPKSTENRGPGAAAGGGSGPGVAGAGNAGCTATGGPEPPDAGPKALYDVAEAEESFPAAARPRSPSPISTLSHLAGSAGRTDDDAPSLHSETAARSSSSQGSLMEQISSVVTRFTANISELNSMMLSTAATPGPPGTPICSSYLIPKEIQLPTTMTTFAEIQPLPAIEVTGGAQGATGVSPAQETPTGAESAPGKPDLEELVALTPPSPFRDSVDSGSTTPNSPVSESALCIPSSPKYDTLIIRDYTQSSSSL

Turning to `O=C(C#Cc1ccccc1)N1CC(Nc2ncccc2[N+](=O)[O-])C1` [AAB(Ib)], the IC50 (in general, the concentration that inhibits the measured activity by half) came out at 110 ± 17.9 nM.
